# Results taken from PubChem BioAssay AID330 (DTP/NCI, 2004).
# Where “and” joins values, the source holds several entries; their conditions need not be identical. Identical values can stand only once. Toxic doses and inconclusive results are not listed.
# Tested on: P388 leukemia ip, CD2F1 mice, survival T/C
# Test: NCI In Vivo Anticancer Drug Screen. Data for tumor model P388 Leukemia (intraperitoneal) in CD2F1 (CDF1) mice
# Conditions: endpoint: median survival time, higher = longer survival
# Method in brief: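 Mice carrying the transplanted tumor received test compound or vehicle. Survival was recorded in each group, and the value is the treated-group measurement divided by that of the vehicle-treated control group.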
# [1] = dose: 12.5 mg/kg/injection, schedule: Q01DX009 (ip), vehicle: saline with Tween-80
# [2] = dose: 50.0 mg/kg/injection, schedule: Q01DX009 (ip), vehicle: saline with Tween-80
# [3] = dose: 12.5 mg/kg/injection, schedule: Q01DX009 (ip), vehicle: saline
# [4] = dose: 25.0 mg/kg/injection, schedule: Q01DX009 (ip), vehicle: saline
# [5] = dose: 50.0 mg/kg/injection, schedule: Q01DX009 (ip), vehicle: saline
# [6] = dose: 60.0 mg/kg/injection, schedule: Q01DX005 (ip), vehicle: saline with Tween-80
# [7] = dose: 120.0 mg/kg/injection, schedule: Q01DX005 (ip), vehicle: saline with Tween-80
# [8] = dose: 100.0 mg/kg/injection, schedule: Q01DX009 (ip), vehicle: saline with Tween-80
# [9] = dose: 200.0 mg/kg/injection, schedule: Q01DX009 (ip), vehicle: saline with Tween-80
# [10] = dose: 400.0 mg/kg/injection, schedule: Q01DX009 (ip), vehicle: saline with Tween-80
# [11] = dose: 240.0 mg/kg/injection, schedule: Q01DX005 (ip), vehicle: saline with Tween-80
# [12] = dose: 50.0 mg/kg/injection, schedule: Q01DX009 (ip), vehicle: Klucel (hydroxypropylcellulose) (HPC)
# [13] = dose: 25.0 mg/kg/injection, schedule: Q01DX009 (ip), vehicle: saline with Tween-80
smiles,measurement,setting,value
CN1C(=O)C(CC(=O)O)(Cc2ccccc2)N(C(=O)c2ccccc2)[C@H]1C(C)(C)C (some centres not stated),T/C,"dose: 100.0 mg/kg/injection, schedule: Q01DX001 (ip), vehicle: saline with Tween-80",112 % of control
same,T/C,"dose: 200.0 mg/kg/injection, schedule: Q01DX001 (ip), vehicle: saline with Tween-80",94 % of control
same,T/C,"dose: 400.0 mg/kg/injection, schedule: Q01DX001 (ip), vehicle: saline with Tween-80",108 % of control
S=C=NCCc1ccccc1,T/C,[1],116 % of control
same,T/C,"dose: 22.0 mg/kg/injection, schedule: Q01DX009 (ip), vehicle: saline with Tween-80",115 % of control
same,T/C,[2],114 % of control
CC(C)N=C(c1ccccc1)N1CCCCC1,T/C,[3],98 % of control
same,T/C,[4],100 % of control
O=C(NC(CCSSCCC(NC(=O)OCc1ccccc1)C(=O)OCc1ccccc1)C(=O)OCc1ccccc1)OCc1ccccc1 (configuration not stated),T/C,"dose: 12.5 mg/kg/injection, schedule: Q01DX009 (ip), vehicle: other",91 % of control
same,T/C,"dose: 25.0 mg/kg/injection, schedule: Q01DX009 (ip), vehicle: other",98 % of control
same,T/C,"dose: 50.0 mg/kg/injection, schedule: Q01DX009 (ip), vehicle: other",94 % of control
same,T/C,"dose: 100.0 mg/kg/injection, schedule: Q01DX009 (ip), vehicle: other",98 % of control
same,T/C,"dose: 200.0 mg/kg/injection, schedule: Q01DX009 (ip), vehicle: other",100 % of control
CCCCC#CC(=O)O,T/C,[5],103 % of control
same,T/C,"dose: 100.0 mg/kg/injection, schedule: Q01DX009 (ip), vehicle: saline",94 % of control
C/C(=N\NC(=O)c1ccccc1N)c1ccccc1O,T/C,"dose: 50.0 mg/kg/injection, schedule: Q01DX005 (ip), vehicle: Klucel (hydroxypropylcellulose) (HPC)",100 % of control
same,T/C,"dose: 100.0 mg/kg/injection, schedule: Q01DX005 (ip), vehicle: Klucel (hydroxypropylcellulose) (HPC)",98 % of control
same,T/C,"dose: 200.0 mg/kg/injection, schedule: Q01DX005 (ip), vehicle: Klucel (hydroxypropylcellulose) (HPC)",100 % of control
CC[N+]1(C)CCCCC1,T/C,"dose: 6.25 mg/kg/injection, schedule: Q01DX009 (ip), vehicle: saline",107 % of control
same,T/C,[3],103 % of control
same,T/C,[4],97 % of control
same,T/C,[5],97 % of control
O=C(CN1CCN(c2ccccc2)CC1)n1cnc2ccc([N+](=O)[O-])cc21,T/C,[6],96 % of control
same,T/C,[7],91 % of control
COc1ccc(Cl)cc1C(c1cc(Cl)ccc1OC)C(Cl)(Cl)Cl,T/C,[8],100 % of control
same,T/C,[9],100 % of control
same,T/C,[10],90 % of control
Cc1ccc(S(=O)(=O)CC(=O)CC(=O)C(=O)Nc2ccc(C)cc2C)cc1,T/C,[6],108 % of control
same,T/C,[7],106 % of control
same,T/C,[11],99 % of control
C1CC2(CC3(C1)SCCS3)SCCS2,T/C,[12],94 % of control
same,T/C,"dose: 100.0 mg/kg/injection, schedule: Q01DX009 (ip), vehicle: Klucel (hydroxypropylcellulose) (HPC)",101 % of control
same,T/C,"dose: 200.0 mg/kg/injection, schedule: Q01DX009 (ip), vehicle: Klucel (hydroxypropylcellulose) (HPC)",101 % of control
COC(=O)N1C(C#N)=CCc2ccccc21,T/C,[6],94 % of control
same,T/C,[7],108 % of control
same,T/C,[11],97 % of control
O=C1NC(=O)C(C23CCN(CC2)CC3)N1 (configuration not stated),T/C,"dose: 100.0 mg/kg/injection, schedule: Q04DX003 (ip), vehicle: saline",101 % of control
same,T/C,"dose: 200.0 mg/kg/injection, schedule: Q04DX003 (ip), vehicle: saline",100 % of control
same,T/C,"dose: 400.0 mg/kg/injection, schedule: Q04DX003 (ip), vehicle: saline",107 % of control
C/C=C(/C)C(=O)OC1c2c(C)coc2CC23OC2CCC(C)C13C (configuration not stated),T/C,"dose: 12.5 mg/kg/injection, schedule: Q01DX009 (ip), vehicle: Klucel (hydroxypropylcellulose) (HPC)",98 % of control
same,T/C,"dose: 25.0 mg/kg/injection, schedule: Q01DX009 (ip), vehicle: Klucel (hydroxypropylcellulose) (HPC)",105 % of control
same,T/C,[12],99 % of control
CCC(=O)N(C)C(C)C(=O)OC1CC(=O)N(C)c2cc(cc(OC)c2Cl)CC(CBr)=C/C=C/C(OC)C2(O)CC(OC(=O)N2)C(C)C2OC12C (configuration not stated),T/C,"dose: 32.0 micrograms/kg/injection, schedule: Q01DX009 (ip), vehicle: saline + alcohol",152 % of control
same,T/C,"dose: 64.0 micrograms/kg/injection, schedule: Q01DX009 (ip), vehicle: saline + alcohol",150 % of control
O=c1nc(-c2ccccc2)c(-c2ccccc2)n[nH]1,T/C,[2],100 % of control
same,T/C,[8],100 % of control
same,T/C,[9],100 % of control
O=[N+]([O-])c1ccc2c(c1)sc1cc([N+](=O)[O-])c(Br)cc12,T/C,[2],104 % of control
same,T/C,[8],102 % of control
same,T/C,[9],112 % of control
same,T/C,[10],103 % of control
CNc1cc(C)c2ccc(N(C)C)cc2n1,T/C,"dose: 7.5 mg/kg/injection, schedule: Q01DX005 (ip), vehicle: Klucel (hydroxypropylcellulose) (HPC)",98 % of control
same,T/C,"dose: 15.0 mg/kg/injection, schedule: Q01DX005 (ip), vehicle: Klucel (hydroxypropylcellulose) (HPC)",102 % of control
same,T/C,"dose: 30.0 mg/kg/injection, schedule: Q01DX005 (ip), vehicle: Klucel (hydroxypropylcellulose) (HPC)",101 % of control
same,T/C,"dose: 60.0 mg/kg/injection, schedule: Q01DX005 (ip), vehicle: Klucel (hydroxypropylcellulose) (HPC)",93 % of control
CCS(=O)(=O)Nc1cccc(Nc2c3cccc(C)c3nc3c(C)cccc23)c1OC,T/C,"dose: 0.7 mg/kg/injection, schedule: Q01DX009 (ip), vehicle: saline with Tween-80",121 % of control
same,T/C,"dose: 5.5 mg/kg/injection, schedule: Q01DX009 (ip), vehicle: saline with Tween-80",157 % of control
same,T/C,"dose: 6.25 mg/kg/injection, schedule: Q01DX009 (ip), vehicle: saline with Tween-80",171 % of control
same,T/C,"dose: 11.0 mg/kg/injection, schedule: Q01DX009 (ip), vehicle: saline with Tween-80",172 % of control and 217 % of control
same,T/C,[1],177 % of control
same,T/C,"dose: 16.7 mg/kg/injection, schedule: Q01DX009 (ip), vehicle: saline with Tween-80",220 % of control
same,T/C,[13],155 % of control and 266 % of control
same,T/C,"dose: 37.5 mg/kg/injection, schedule: Q01DX009 (ip), vehicle: saline with Tween-80",86 % of control
same,T/C,[2],91 % of control
CC1=NN(C(=O)c2cccnc2)C(=O)C1N=Nc1ccc(S(=O)(=O)Nc2ccccn2)cc1 (configuration not stated),T/C,"dose: 100.0 mg/kg/injection, schedule: Q04DX003 (ip), vehicle: saline with Tween-80",94 % of control
same,T/C,"dose: 200.0 mg/kg/injection, schedule: Q04DX003 (ip), vehicle: saline with Tween-80",93 % of control
same,T/C,"dose: 400.0 mg/kg/injection, schedule: Q04DX003 (ip), vehicle: saline with Tween-80",90 % of control
CCCCCCCCCCCCCCCC[As](CCCCCCCCCCCCCCCC)SCC1OC(OC(C)=O)C(OC(C)=O)C(OC(C)=O)C1OC(C)=O (configuration not stated),T/C,[13],114 % of control
same,T/C,[2],109 % of control and 119 % of control
same,T/C,[8],117 % of control
same,T/C,[9],119 % of control
O=C(NC(=O)c1ccccc1Cl)Nc1ccc(C(O)(C(F)(F)F)C(F)(F)F)cc1,T/C,"dose: 50.0 mg/kg/injection, schedule: Q01DX005 (ip), vehicle: saline with Tween-80",104 % of control
same,T/C,"dose: 100.0 mg/kg/injection, schedule: Q01DX005 (ip), vehicle: saline with Tween-80",102 % of control
same,T/C,"dose: 200.0 mg/kg/injection, schedule: Q01DX005 (ip), vehicle: saline with Tween-80",100 % of control
CCOc1c(N=Nc2ccccc2Cl)c(C)nn1C(=S)SC,T/C,"dose: 60.0 mg/kg/injection, schedule: Q01DX005 (ip), vehicle: Klucel + Tween-80",103 % of control
same,T/C,"dose: 120.0 mg/kg/injection, schedule: Q01DX005 (ip), vehicle: Klucel + Tween-80",112 % of control
same,T/C,"dose: 240.0 mg/kg/injection, schedule: Q01DX005 (ip), vehicle: Klucel + Tween-80",103 % of control
C=C1C(=O)OC2/C=C(\C)CC/C=C(/C=O)CC(OC(=O)C(C)C)C12 (configuration not stated),T/C,"dose: 5.0 mg/kg/injection, schedule: Q01DX009 (ip), vehicle: other",100 % of control
same,T/C,"dose: 10.0 mg/kg/injection, schedule: Q01DX009 (ip), vehicle: other",91 % of control
same,T/C,"dose: 20.0 mg/kg/injection, schedule: Q01DX009 (ip), vehicle: other",112 % of control
CSc1c2c([nH]c(=O)c1C#N)-c1ccccc1CC2,T/C,"dose: 30.0 mg/kg/injection, schedule: Q01DX005 (ip), vehicle: saline with Tween-80",89 % of control
same,T/C,[6],91 % of control
same,T/C,[7],95 % of control and 96 % of control
same,T/C,[11],88 % of control
CCCN(CCC)c1nsc(N)n1,T/C,"dose: 7.5 mg/kg/injection, schedule: Q01DX009 (ip), vehicle: saline with Tween-80",113 % of control
same,T/C,"dose: 15.0 mg/kg/injection, schedule: Q01DX009 (ip), vehicle: saline with Tween-80",113 % of control
same,T/C,"dose: 30.0 mg/kg/injection, schedule: Q01DX009 (ip), vehicle: saline with Tween-80",118 % of control
